We go through 97 molecules from ChEMBL document CHEMBL3507680, “University of Dundee, Gates Library screen for HepG2 cell viability”.

The data set in a line: Human HepG2 cell viability assay in 384 well format. The data set is classed as toxicity, cell-based. Conditions: HepG2 cells, read-out: Inhibition. Set-up: dose 125 nL, time 70.5 hour; concentration not given beside the values.
For `CC(C)c1nn(C)c(N(C)C)c1CNC1CCOc2ccccc21` (configuration not stated), the cytotoxicity at 70.5 h was determined as 7.29%.
In the case of `Cc1nccn1[C@@H]1CC[C@@H](N(C)S(=O)(=O)c2cccc(F)c2)[C@H]1O` it was -0.727%.
As to `Fc1cccc(CN2C[C@@H]3CN(c4ncccn4)C[C@@H]3C2)c1`, the cytotoxicity at 70.5 h was -3.5%.
On to `Cc1cc(C2CCN(C(=O)c3cnn(C)c3)CC2)ccn1`, for which the cytotoxicity at 70.5 h was -5.33%.
Regarding `O=C(NCc1ccco1)[C@@]12CCO[C@@H]1CCN(CC1CCOCC1)C2`, the cytotoxicity at 70.5 h was -1.64%.
For `CC(C)c1nc(O)c2nnn(C[C@@H]3CCCN(Cc4cccs4)C3)c2n1`, the cytotoxicity at 70.5 h is 1.47%.
In the case of `Cc1cc(C(F)(F)F)nn1CCNC(=O)C(C)n1ccnc1C(C)C` (configuration not stated) it was 10.3%; in that of `Cc1csc([C@@H]2C[C@@H]3CCN(Cc4cnn(C)c4)C[C@H]3O2)n1`, -8.46%; in that of `O=C1COC2(CCN(C(=O)c3ccco3)CC2)CN1Cc1ccccn1`, -1.65%.
For `CCC(=O)N1CCC2(CCN(Cc3cccc(F)c3)CC2)CC1`, the cytotoxicity at 70.5 h is -1.29%.
As for `Clc1ccccc1CN1CCCC(c2nnc(-c3cnccn3)o2)C1` (configuration not stated), the cytotoxicity at 70.5 h was -5.49%.
Turning to `Cc1ccc(C(=O)NS(=O)(=O)c2cccc3cnccc23)c(=O)[nH]1`, the cytotoxicity at 70.5 h is -6.04%.
As for `O=C(c1cnc2ccc(Cl)cc2c1NCc1ccco1)N1CCCCC1`, the cytotoxicity at 70.5 h turned out to be 23.3%.
On to `O=C(CCn1cnnn1)N1CCCC(CO)(CCc2ccccc2)C1` (configuration not stated), for which the cytotoxicity at 70.5 h was determined as 18%.
As to `Cc1cccc(C(=O)N2C[C@@H]3OCCN(c4ncccn4)[C@@H]3C2)n1`, the cytotoxicity at 70.5 h amounted to 2.67%.
In the case of `Cc1csc(CNC(=O)N(C)Cc2ccc3c(c2)OCO3)n1`, the cytotoxicity at 70.5 h is -9.49%.
On to `O=C(NCCc1c[nH]c2ccccc12)C1(n2cnnn2)CCCCC1`, for which the cytotoxicity at 70.5 h was -28.6%.
In the case of `CO[C@H]1CCN(S(=O)(=O)N(C)C)[C@@H]2CN(Cc3cccnc3)C[C@H]12`, the cytotoxicity at 70.5 h is -5.31%.
Consider `Cc1nn(C)c2ncc(NC(=O)N3CCCCCC3)cc12`, for which the cytotoxicity at 70.5 h was -4.95%.
Consider `Cn1ccc(C(=O)N2C[C@@H]3CN(CC4CC4)CCO[C@@H]3C2)n1`, for which the cytotoxicity at 70.5 h is 11.6%.
Turning to `CC(C(=O)NC1(C#N)CCCCC1)N1CCc2c(ncn2C)C1` (configuration not stated), the cytotoxicity at 70.5 h is -3.36%.
`Cc1ccc(C)c(-n2ncc(C(=O)N(C)CCc3ccccn3)c2N)c1`: the cytotoxicity at 70.5 h was 4.61%.
In the case of `Cn1nccc1-c1ncc2c(c1C(=O)O)CCN(Cc1ccccc1)C2`, the cytotoxicity at 70.5 h was found to be 11.6%.
With `CCCNC(=O)CN1CCN(c2nc(CC)ns2)CC1`, the cytotoxicity at 70.5 h is -9.67%.
For `Cc1nc(CSc2ccc(C(F)(F)F)cn2)no1`, the cytotoxicity at 70.5 h was -9.49%.
For `Cc1cc(NCCS(C)(=O)=O)nc2ccccc12`, the cytotoxicity at 70.5 h is -1.98%.
On to `COc1ccc(OC)c(-c2nc(CN(C)Cc3nncn3C)c(C)o2)c1`, for which the cytotoxicity at 70.5 h was -6.73%.
Consider `Cc1occc1CN(C)C(=O)Nc1ccc(=O)n(C)c1`, for which the cytotoxicity at 70.5 h is -7.93%.
For `CNc1nc(C)c(C(=O)N2C[C@H]3CC[C@@H]2CN(c2cnccn2)C3)s1`, the cytotoxicity at 70.5 h is -6.37%.
For `Cc1nc(CN2C[C@@H]3CN(C(=O)c4ccnnc4)C[C@@H]3C2=O)cs1`, the cytotoxicity at 70.5 h is -3.08%.
With `CS(=O)(=O)CCC(=O)NC1CC(c2cccc(Cl)c2)C1` (configuration not stated), the cytotoxicity at 70.5 h amounted to 14.6%.
Take `Cc1ccc(OCc2ccc(C(=O)O)s2)cc1C`: the cytotoxicity at 70.5 h was -6.36%.
In the case of `CC(C)C(=O)N1CC[C@@H]2[C@H](CC1)N(Cc1cccnc1)CCS2(=O)=O`, the cytotoxicity at 70.5 h worked out at 2.07%.
The result for `COc1ccc(CNc2c(C)nn(C(C)C)c2C)cc1` reads 13.9%; that for `N#Cc1ccc(C2CC(=O)Nc3c2cnn3C2CCCC2)cc1` (configuration not stated), -2.74%; that for `COc1cc(F)ccc1-c1cc(CO)ccn1`, -8.15%.
With `COc1cc(C)sc1C(=O)N1CCCCC1c1ccccn1` (configuration not stated), the cytotoxicity at 70.5 h is -16.5%.
Consider `O=C(NC1CCS(=O)(=O)c2ccccc21)c1sccc1C1CC1` (configuration not stated), for which the cytotoxicity at 70.5 h is -7.25%.
The result for `COc1ccc2c(ccn2CC(=O)N2CCCC2Cn2cccn2)c1` (configuration not stated) reads 3.03%; that for `Cc1nc(-c2cnn(C)c2)nc2c1CN(C(=O)c1ccc[nH]1)CC2`, -6.12%; that for `COc1ccccc1-n1cc(C(=O)NCCn2nc(C)nc2C)cn1`, -9.92%.
As to `Cc1cccc(C(=O)N2CCCN(CCCSCC#N)CC2)c1`, the cytotoxicity at 70.5 h is -10.7%.
Take `CCCc1n[nH]c(C2CN(C(=O)c3cc4c(s3)CCC4)CCO2)n1` (configuration not stated): the cytotoxicity at 70.5 h is -7.08%.
For `O=C(O)c1cccc(CC2CCN(c3ncccn3)CC2)c1`, the cytotoxicity at 70.5 h came to 3.25%.
The result for `COc1ccccc1CC1CCCN(CC(N)=O)C1` (configuration not stated) reads -2.63%; that for `N#CC1(C(=O)NCc2ccc(F)cc2)CCCC1`, 3.1%.
`Cc1nn2c(N3CCS(=O)(=O)CC3)cc(-c3ccccc3)nc2c1C`: the cytotoxicity at 70.5 h was 1.53%.
For `COCCNC(=O)CCN1C(=O)CC2(CCCC2)C1=O`, the cytotoxicity at 70.5 h is -15.7%.
Turning to `CCn1cnnc1CN(C)Cc1nc(-c2cc(OC)ccc2F)oc1C`, the cytotoxicity at 70.5 h is -6.85%.
Regarding `COCCN1CCC(c2nc3ccc(-c4ccccc4)cn3n2)CC1`, the cytotoxicity at 70.5 h was 1.72%.
For `CC(=O)c1ccc(NC(=O)NC(C)c2ccc3c(c2)CC(=O)N3)cc1` (configuration not stated), the cytotoxicity at 70.5 h turned out to be 2.82%.
In the case of `O=C(NC1CC1)c1cc(C2CC2)nc2onc(C3CCNCC3)c12` it was -4.47%; in that of `NC(=O)C1CN(C(=O)c2ccc(F)cc2)CCN1CCc1ccccc1` (configuration not stated), -4.6%; in that of `CCOc1ncccc1CNC(=O)N1CCCC1c1ccsc1` (configuration not stated), -0.934%.
In the case of `CNC[C@H]1CC[C@H](c2cc(CN(C)C(=O)c3cnccn3)n(C)n2)CC1` it was -8.17%; in that of `O=C([C@H]1C[C@H]2OCC[C@H]2N(Cc2cccnc2)C1)N1CCCCO1`, -7.65%.
Consider `COc1ccnc(N2CCN(C(=O)c3csnn3)CC2)n1`, for which the cytotoxicity at 70.5 h was -3.32%.
`O=C(CCNc1ncccn1)N1CCCC(n2ccnc2)C1` (configuration not stated): the cytotoxicity at 70.5 h is -2.71%.
On to `CNc1ncc(C(=O)N2CCCC(Cc3ccccc3OC)C2)s1` (configuration not stated), for which the cytotoxicity at 70.5 h turned out to be 20.4%.
Turning to `Cc1cc(C)n(-c2ccnc(N3CCC(C(=O)N4CCCC4)CC3)n2)n1`, the cytotoxicity at 70.5 h was -4.06%.
In the case of `Cc1cccc(CN2CCCC23CCNC3)n1` (configuration not stated) it was 24.8%; in that of `Cc1nc(CN2C(=O)C[C@H]3[C@H]2CCN3CC2CCOC2)cs1` (some centres not stated), 2.38%.
`COCCN1CCCN(C(=O)NC(C)Cn2cccn2)CC1` (configuration not stated): the cytotoxicity at 70.5 h is -14.2%.
For `COC(=O)[C@@H]1CCCN1C(=O)c1cn(C/C=C/c2ccccc2)nn1`, the cytotoxicity at 70.5 h is 24.7%.
`CCN1CCC(CNc2nccc(C)n2)(N(C)C)CC1`: the cytotoxicity at 70.5 h was -3.2%.
Consider `CCc1nc2n(n1)CC(NCc1cnc(N(CC)CC)s1)CC2` (configuration not stated), for which the cytotoxicity at 70.5 h was -18.7%.
The result for `Cn1ccc2c(C(=O)N3CCC4(CCOC4)C3)cccc21` (configuration not stated) reads 23.5%; that for `Cc1cccc(CC(=O)N2CCCCC2CN)c1` (configuration not stated), -3.78%.
Take `Cc1nn(C)c(Cl)c1C1CCCN1C(=O)c1ccncc1` (configuration not stated): the cytotoxicity at 70.5 h worked out at 0.652%.
For `COC(=O)C(C)Sc1nnnn1C1CCOCC1` (configuration not stated), the cytotoxicity at 70.5 h is -5.79%.
Consider `O=C1[C@@H]2CCN(Cc3ccc(F)cc3)C[C@@H]2OCCN1c1cccnc1`, for which the cytotoxicity at 70.5 h was -3.72%.
With `COCCCN1CC2(CCCN(c3ncnc4[nH]ccc34)C2)CCC1=O` (configuration not stated), the cytotoxicity at 70.5 h was -6.33%.
As for `COCCN(Cc1ccoc1)S(=O)(=O)c1ccc(OC)c(Cl)c1`, the cytotoxicity at 70.5 h is -20.8%.
Turning to `CC1CCCN(C(=O)NCC(F)F)C1` (configuration not stated), the cytotoxicity at 70.5 h was -4.81%.
In the case of `CC(C)NC(=O)CC1COC2(CCN(Cc3ccsc3)CC2)C1` (configuration not stated) it was -9.99%; in that of `CC(C)COC(=O)N1CC(=O)N(CCCc2ccccc2)CC(O)C1` (configuration not stated), -4.38%.
`Cc1cc(NC(=O)Cn2ccc(-c3ccc4c(c3)OCO4)n2)n(C)n1`: the cytotoxicity at 70.5 h is -13.2%.
Regarding `CC(CCN1CCCn2nc(CNS(C)(=O)=O)cc2C1)c1ccccc1` (configuration not stated), the cytotoxicity at 70.5 h amounted to 17.7%.
Turning to `CO[C@H]1CN(C(C)C)C[C@@H]1NC(=O)Nc1ccc(C(F)(F)F)cc1`, the cytotoxicity at 70.5 h is -5.18%.
As for `CS(=O)(=O)N1CCc2ccc(C(=O)N3CCn4ncnc4C3)cc21`, the cytotoxicity at 70.5 h is -1.85%.
Consider `Cc1cc(CN(C)C(=O)NCc2cccc(N3CCCC3=O)c2)no1`, for which the cytotoxicity at 70.5 h is -25.6%.
As for `CNC(=O)c1sc(C(NC(=O)c2ccccc2)C2CC2)nc1C` (configuration not stated), the cytotoxicity at 70.5 h was -4.95%.
Consider `Cc1nc2c(c(NC(C)c3nnn[nH]3)n1)Cc1ccccc1OC2` (configuration not stated), for which the cytotoxicity at 70.5 h is -6.63%.
As to `CCN(C(=O)C(C)C)C(c1cccnc1)c1ccc2c(c1)CCO2` (configuration not stated), the cytotoxicity at 70.5 h was 18.4%.
For `NC(=O)NCC1CCCCN1C(=O)c1ccc(Cl)s1` (configuration not stated), the cytotoxicity at 70.5 h is -8.02%.
`Cc1ccc(-c2cn3c(n2)CO[C@@H](CNCc2cnn(C)c2)C3)cc1`: the cytotoxicity at 70.5 h worked out at 6.98%.
In the case of `Cc1c(Cl)c(C(=O)N2CC[C@H](N3CCOCC3)[C@H](CCCO)C2)nn1C` it was 3.03%; in that of `CC(C)(C)CCN1CCCC(Cn2cc(CCO)nn2)C1` (configuration not stated), -9.34%.
Regarding `CN(Cc1nnc(C2CC2)o1)C1CCCN(c2cccnn2)C1` (configuration not stated), the cytotoxicity at 70.5 h was -3.05%.
In the case of `CC(C)N(C)CCNC(=O)N1CCN(Cc2ccon2)CC1` it was -5.35%; in that of `COCC1CC2(CCN(Cc3ccccn3)CC2)CN1C(C)C` (configuration not stated), -7.51%; in that of `Cc1nc(CNC(=O)NCC(O)c2ccc(F)cc2F)cs1` (configuration not stated), -12%.
Take `O=C(Nc1ccnn1Cc1ccccc1Cl)C1CCS(=O)(=O)C1` (configuration not stated): the cytotoxicity at 70.5 h was -17%.
For the molecule `CCN(CC)C(=O)c1cnc(Sc2nccn2C)c(Cl)c1`, the cytotoxicity at 70.5 h was -3.32%.
Regarding `CC(NC(=O)NCCCc1n[nH]c(N)c1C#N)c1ccccc1` (configuration not stated), the cytotoxicity at 70.5 h was 26.6%.
As for `CN(Cc1cccnc1)C1CCCN(Cc2noc(C3CC3)n2)C1` (configuration not stated), the cytotoxicity at 70.5 h is 24.6%.
With `CN(C)S(=O)(=O)c1ccc(-c2nc(C#N)c(NC(C)(C)C)o2)o1`, the cytotoxicity at 70.5 h is -8.34%.
